# Results taken from patent publication US11466034B2, “Compound functioning as bromodomain protein inhibitor, and composition” (Betta Pharmaceuticals Co., Ltd., priority 2017, dated 2022).
# Columns and labels:
# BRD4(D1) = BRD4(D1) (Homo sapiens (Human), UniProt O60885); assay: Inhibitory activity against BRD4(D1), HTRF assay; format: binding
# Procedure: (§1) (+)-JQ1 was used as comparison compound, to evaluated the inhibitory activity of compounds of the invention against BRD4(D1) and BRD4(D2) in vitro.
# (§2) The assays of BRD4 (D1) and BRD4 (D2) were conducted in a 384-well polystyrene plate. The test compounds were first serially diluted in DMSO and the test compound/DMSO were transferred to 384-well plates. The final concentration of DMSO in the assay was 0.1%. 2 volumes of protein/peptide mixture were added into 384-well plates, then 2 volumes of assay mixture were added, and shake for 30 s. The plate was incubated at room temperature for 2 h. Then the HTRF signal on EnVision was readed.
# (§3) Use equation (1) to fit the date in Excel to obtain the value of the inhibition rate. Inhibition rate (%)=(maximum value−signal value)/(maximum value−minimum value)*100 Equation(1):
# (§4) IC50 determination was performed by fitting the data using GraphPad Prism 5.0 software and equation (2). Y=bottom+(Top−bottom)/(1+10^((Log IC50−X)*HillSlope)); Equation(2): wherein, Y represents the percentage of inhibition (%); X represents the concentration of test compounds.
# (§5) The IC50 data of the examples were provided in the following table, wherein, A stands for IC50<100 nM; B stands for IC50 is 100-300 nM; C stands for IC50>300 nM.
# BRD4(D2) = BRD4(D2) (Homo sapiens (Human), UniProt O60885); assay: Inhibitory activity against BRD4(D2), HTRF assay; format: binding
# Procedure: as §1, §2, §3, §4, §5
Compound,IC50 (BRD4(D1); numeric values) [µM],IC50 (BRD4(D2); numeric values) [µM],IC50 (BRD4(D1); class symbols) [µM],IC50 (BRD4(D2); class symbols) [µM]
"Cc1nc2ncc(-c3cn(C)c(=O)c4[nH]ccc34)cc2n1Cc1ccc(Cl)cc1 [Example 1, 4-(1-(4-chlorobenzyl)-2-methyl-1H-imidazo[4,5-b]pyridin-6-yl)-6-methyl-1H-pyrrolo[2,3-c]pyridin-7(6H)-one]",0.007,0.0025,–,–
"COc1ccc(Cn2c(C)nc3ncc(-c4cn(C)c(=O)c5[nH]ccc45)cc32)cc1 [Example 2, 4-(1-(4-methoxybenzyl)-2-methyl-1H-imidazo[4,5-b]pyridin-6-yl)-6-methyl-1H-pyrrolo[2,3-c]pyridin-7(6H)-one]",0.0104,0.003,–,–
"CSc1ccc(Cn2c(C)nc3ncc(-c4cn(C)c(=O)c5[nH]ccc45)cc32)cc1 [Example 3, 6-methyl-4-(2-methyl-1-(4-(methylthio)benzyl)-1H-imidazo[4,5-b]pyridin-6-yl)-1H-pyrrolo[2,3-c]pyridin-7(6H)-one]",0.0127,0.0032,–,–
"Cc1nc2ncc(-c3cn(C)c(=O)c4[nH]ccc34)cc2n1Cc1ccc(C(F)(F)F)cc1 [Example 4, 6-methyl-4-(2-methyl-1-(4-(trifluoromethyl)benzyl)-1H-imidazo[4,5-b]pyridin-6-yl)-1H-pyrrolo[2,3-c]pyridin-7(6H)-one]",0.0146,0.004,–,–
"Cc1nc2ncc(-c3cn(C)c(=O)c4[nH]ccc34)cc2n1Cc1ccccc1 [Example 6, 4-(1-benzyl-2-methyl-1H-imidazo[4,5-b]pyridin-6-yl)-6-methyl-1H-pyrrolo[2,3-c]pyrid in-7(6H)one]",0.0076,0.0028,–,–
"Cc1nc2ncc(-c3cn(C)c(=O)c4[nH]ccc34)cc2n1C [Example 7, 4-(1,2-dimethyl-1H-imidazo[4,5-b]pyridin-6-yl)-6-methyl-1,6-dihydro-7H-pyrrolo[2,3-c]pyridin-7-one]",0.0524,0.0108,–,–
"Cc1nc2ncc(-c3cn(C)c(=O)c4[nH]ccc34)cc2[nH]1 [Example 8, 6-methyl-4-(2-methyl-1H-imidazo[4,5-b]pyridin-6-yl)-1,6-dihydro-7H-pyrrolo[2,3-c]pyridin-7-one]",0.0399,0.006,–,–
"COC(=O)c1ccc(Cn2c(C)nc3ncc(-c4cn(C)c(=O)c5[nH]ccc45)cc32)cc1 [Example 9, methyl 4-((2-methyl-6-(6-methyl-7-oxo-6,7-dihydro-1H-pyrrolo[2,3-c]pyridin-4-yl)-1H-imidazo[4,5-b]pyridin-1-yl)methyl)benzoate]",–,–,0.1 to 0.3,0.1 to 0.3
"COc1ccc(Cn2c(C)nc3ncc(-c4cn(Cc5ccccc5)c(=O)c5[nH]ccc45)cc32)cc1 [Example 10, 6-benzyl-4-(1-(4-methoxybenzyl)-2-methyl-1H-imidazo[4,5-b]pyridin-6-yl)-1,6-dihydro-7H-pyrrolo[2,3-c]pyridin-7-one]",–,–,> 0.3,> 0.3
"COc1ccc(Cn2c(C)nc3ncc(-c4cn(CC(C)C)c(=O)c5[nH]ccc45)cc32)cc1 [Example 11, 6-isobutyl-4-(1-(4-methoxybenzyl)-2-methyl-1H-imidazo[4,5-b]pyridin-6-yl)-1,6-dihydro-7H-pyrrolo[2,3-c]pyridin-7-one]",–,–,> 0.3,0.1 to 0.3
"CCn1cc(-c2cnc3nc(C)n(Cc4ccc(OC)cc4)c3c2)c2cc[nH]c2c1=O [Example 12, 6-ethyl-4-(1-(4-methoxybenzyl)-2-methyl-1H-imidazo[4,5-b]pyridin-6-yl)-1,6-dihydro-7H-pyrrolo[2,3-c]pyridin-7-one]",–,–,0.1 to 0.3,0.1 to 0.3
"COc1ccc(Cn2c(C)nc3ncc(-c4c[nH]c(=O)c5[nH]c(C)cc45)cc32)cc1 [Example 13, 4-(1-(4-methoxybenzyl)-2-methyl-1H-imidazo[4,5-b]pyridin-6-yl)-2-methyl-1,6-dihydro-7H-pyrrolo[2,3-c]pyridin-7-one]",–,–,0.1 to 0.3,0.1 to 0.3
"COc1ccc(Cn2c(C)nc3ncc(-c4cn(Cc5nccs5)c(=O)c5[nH]ccc45)cc32)cc1 [Example 14, 4-(1-(4-methoxybenzyl)-2-methyl-1H-imidazo[4,5-b]pyridin-6-yl)-6-(thiazol-2-ylmethyl)-1,6-dihydro-7H-pyrrolo[2,3-c]pyridin-7-one]",–,–,0.1 to 0.3,> 0.3
"COc1ccc(Cn2c(C)nc3ncc(-c4cn(Cc5ccn[nH]5)c(=O)c5[nH]ccc45)cc32)cc1 [Example 15, 4-(1-(4-methoxybenzyl)-2-methyl-1H-imidazo[4,5-b]pyridin-6-yl)-6-(pyrazol-2-methyl)-1,6-dihydro-7H-pyrrolo[2,3-c]pyridin-7-one]",–,–,> 0.3,0.1 to 0.3
"COc1cccc(Cn2c(C)nc3ncc(-c4c[nH]c(=O)c5[nH]c(C)cc45)cc32)c1 [Example 16, 4-(1-(3-methoxybenzyl)-2-methyl-1H-imidazo[4,5-b]pyridin-6-yl)-2-methyl-1,6-dihydro-7H-pyrrolo[2,3-c]pyridin-7-one]",–,–,0.1 to 0.3,< 0.1
"Cc1nc2ncc(-c3cn(Cc4cccnc4)c(=O)c4[nH]ccc34)cc2n1Cc1ccc(Cl)cc1 [Example 17, 4-(1-(4-chlorobenzyl)-2-methyl-1H-imidazo[4,5-b]pyridin-6-yl)-6-(pyridin-3-ylmethyl)-1,6-dihydro-7H-pyrrolo[2,3-c]pyridin-7-one]",–,–,> 0.3,> 0.3
"COc1ccc(Cn2c(C)nc3ncc(-c4cn(C)c(=O)c5[nH]ccc45)nc32)cc1 [Example 20, 4-(1-(4-methoxybenzyl)-2-methyl-H-imidazo[4,5-b]pyrazin-6-yl)-6-methyl-1H-pyrrol o[2,3-c]pyridin-7(6H)-one]",0.0128,0.0025,–,–
"Cc1nc2ncc(-c3cn(C)c(=O)c4[nH]ccc34)nc2n1C(C)c1ccc(Cl)cc1 (stereo not drawn) [Example 21, 4-(1-(1-(4-chlorophenyl)ethyl)-2-methyl-1H-imidazo[4,5-b]pyrazin-6-yl)-6-methyl-1,6-dihydro-7H-pyrrolo[2,3-c]pyridin-7-one]",0.0061,0.0018,–,–
"Cc1nc2ncc(-c3cn(C)c(=O)c4[nH]ccc34)nc2n1Cc1ccccc1 [Example 22, 4-(1-benzyl-2-methyl-1H-imidazo[4,5-b]pyrazin-6-yl)-6-methyl-1H-pyrrolo[2,3-c]pyrid in-7(6H)-one]",–,–,< 0.1,< 0.1
"Cc1nc2ncc(-c3cn(C)c(=O)c4[nH]ccc34)nc2n1Cc1cc(C(F)(F)F)ccc1F [Example 24, 4-(1-(2-fluoro-5-trifluoromethylbenzyl)-2-methyl-1H-imidazo[4,5-b]pyrazin-6-yl)-6-methyl-1H-pyrrolo[2,3-c]pyridin-7(6H)-one]",–,–,< 0.1,< 0.1
"Cc1nc2ncc(-c3cn(C)c(=O)c4[nH]ccc34)nc2n1Cc1ccc(Cl)cc1F [Example 26, 4-(1-(2-fluoro-4-chlorobenzyl)-2-methyl-H-imidazo[4,5-b]pyrazin-6-yl)-6-methyl-H-pyrrolo[2,3-c]pyridin-7(6H)-one]",–,–,< 0.1,< 0.1
"Cc1nc2ncc(-c3cn(C)c(=O)c4[nH]ccc34)nc2n1Cc1ccc(C(F)(F)F)c(F)c1 [Example 28, 4-(1-(3-fluoro-4-trifluoromethylbenzyl)-2-methyl-1H-imidazo[4,5-b]pyrazin-6-yl)-6-methyl-1H-pyrrolo[2,3-c]pyridin-7(6H)-one]",–,–,< 0.1,< 0.1
"Cc1nc2ncc(-c3cn(C)c(=O)c4[nH]ccc34)nc2n1Cc1ccc(C(F)(F)F)c(Cl)c1 [Example 29, 4-(1-(3-chloro-4-trifluoromethylbenzyl)-2-methyl-1H-imidazo[4,5-b]pyrazin-6-yl)-6-methyl-1H-pyrrolo[2,3-c]pyridin-7(6H)-one]",–,–,< 0.1,< 0.1
"Cc1nc2ncc(-c3cn(C)c(=O)c4[nH]ccc34)nc2n1Cc1cccc(Cl)c1 [Example 30, 4-(1-(3-chlorobenzyl)-2-methyl-1H-imidazo[4,5-b]pyrazin-6-yl)-6-methyl-1H-pyrrolo[2,3-c]pyridin-7(6H)-one]",–,–,< 0.1,< 0.1
"Cc1nc2ncc(-c3cn(C)c(=O)c4[nH]ccc34)nc2n1Cc1ccc(F)cc1F [Example 31, 4-(1-(2,4-difluorobenzyl)-2-methyl-1H-imidazo[4,5-b]pyrazin-6-yl)-6-methyl-1H-pyrrolo[2,3-c]pyridin-7(6H)-one]",–,–,< 0.1,< 0.1
"Cc1nc2ncc(-c3cn(C)c(=O)c4[nH]ccc34)nc2n1Cc1ccc(Br)cc1 [Example 32, 4-(1-(4-bromobenzyl)-2-methyl-1H-imidazo[4,5-b]pyrazin-6-yl)-6-methyl-H-pyrrolo[2,3-c]pyridin-7(6H)-one]",–,–,< 0.1,< 0.1
"Cc1nc2ncc(-c3cn(C)c(=O)c4[nH]ccc34)nc2n1Cc1ccc(S(C)(=O)=O)cc1 [Example 33, 6-methyl-4-(2-methyl-1-(4-(methylsulfonyl)benzyl)-1H-imidazo[4,5-b]pyrazin-6-yl)-1H-pyrrolo[2,3-c]pyridin-7(6H)-one]",–,–,< 0.1,< 0.1
"Cn1cc(-c2cnc3[nH]c(=O)n(Cc4ccc(Cl)cc4)c3c2)c2cc[nH]c2c1=O [Example 34, 1-(4-chlorobenzyl)-6-(6-methyl-7-oxo-6,7-dihydro-1H-pyrrolo[2,3-c]pyridin-4-yl)-1,3-dihydro-2H-imidazo[4,5-b]pyridin-2-one]",0.107,0.031,–,–
(+)-JQ1 [reference compound],0.016,–,–,–
